In US20170260169A1, “INHIBITORS FOR STEROID RESPONSE ELEMENTS AND RNA POLYMERASE II AND RELATED METHODS” (priority 2007, published 2017):
pIC50: −log10 of the molar value. “Also recorded” adds a separate entry of the source. Like-named read-outs stand apart in the source and are kept apart here.

Legend:
[1] = human, microsomes, 1 h, 1 μM, pH 7.4
Method: (§2) Briefly, each polyamide was incubated with 1 mg/ml human or mouse microsomes at 37° C. The reaction was incubated in 100 mM KH2PO4, 2 mM NADPH, 3 mM MgCl2 at pH 7.4. Samples were also incubated in the absence of NADPH to detect NADPH-free degradation. After 60 min the samples were mixed with an equal volume of ice cold methanol stop solution. The mixture was allowed to sit on ice for at least 10 min and mixed with an equal volume of water. The samples were then centrifuged to remove the precipitates and the samples were analyzed by LC/MS/MS. Data represents % remaining by comparing with time zero concentration. The experiments were performed in duplicate.

[2] = mouse, microsomes, 1 h, 1 μM, pH 7.4
Method: as §2

[3] = system: LNCaP cells; test: Cell viability WST-1 assay; type: cell-based; conditions: 72 hr incubation; read-out: half maximal inhibitory concentration, viability of LNCaP cells
Method: LNCaP cells were plated in clear bottom 96 well plates at 5,000-7,500 cells per well. The cells were allowed to adhere for 24-36 h before compounds were added in fresh media. Cell viability was determined by the WST-1 assay (Roche) for 77 and 85 after 24 h or 72 h incubation with cells. Cells in cytotoxicity rescue experiments were treated with 85 alone or with 3 μM for 24 h.
LNCaP cells were plated in clear bottom 96-well plates at 5,000-7,500 cells per well and allowed to adhere for 36-48 h. Compounds were then added in fresh media. Cell metabolic activity was determined by the WST-1 assay (Roche) after 72-h incubation with cells. Quantification was performed on a Perkin Elmer Victor 3 plate reader. Assays were performed in biological triplicates.

[4] = system: p53 target genes; test: Quantitative RT-PCR of p53 target genes in LNCaP cells; type: cell-based
Method: RNA was extracted using RNEasy columns (Qiagen) according to manufacturer's protocols. cDNA was generated from RNA by reverse transcriptase (Transcriptor First Strand cDNA kit, Roche). Quantitative real-time RT-PCR was performed using SYBR Green PCR Master Mix (Applied Biosystems) on an ABI 7300 instrument. mRNA was measured relative to B glucuronidase as an endogenous control.
The cells were then treated with 1, 3, and 10 μM of 78 for 72 h. Total cellular RNA was extracted using RNEasy columns (Qiagen) following the manufacturer's protocols. Isolated RNA was reverse transcribed with Transcriptor First Strand cDNA kit (Roche). Quantitative real-time PCR was performed using SYBR Green PCR Master Mix (Applied Biosystems) on an ABI 7300 instrument. Amplification of p21, IGFBP3, and GADD45A cDNA was measured relative to β-glucuronidase using previously published primers (24). Experiments were performed in biological replicates.

[5] = system: LNCaP xenografts; test: LNCaP xenografts in male NSG mice; type: in vivo; conditions: six injections
Method: All mice experiments were conducted under an approved protocol by the Institutional Animal Care and Use Committee of the California Institute of Technology. Male NOD scid gamma (NSG) mice were purchased from The Jackson Laboratory. The animals were individually caged and maintained on a standard light-dark cycle. NSG mice were engrafted with LNCaP cells (2.5 million cells) in a mixture of 1:1 media and matrigel in the left flank. Tumors were grown to ˜100 mm^3 (L×W^2) before beginning treatment with compound or vehicle. Py-Im polyamide 77 was administered once every 3 days in a 5% DMSO:PBS vehicle solution until the experiment endpoint.
To investigate if polyamide 77 could be detected in peripheral blood after SC injections, 120 nmol of 77 (in 5% DMSO/PBS) was injected into the right flank of four C57BL/6 mice. Blood was collected from anesthetized mice via retroorbital collection at 5 minutes, 4 h, and 12 h after injection, then processed by methods previously described and analyzed by HPLC (35). For measurement of serum PSA (KLK3) and uric acid, blood was collected from anesthetized mice via retroorbital collection at experimental endpoint and serum was separated from blood by centrifugation. Serum PSA (KLK3) was measured by ELISA (R&D systems) according to manufacturer's instructions. Uric acid was measured as described (36).
Tumors were resected immediately after euthanasia and fixed in neutral buffered formalin. Selected samples were embedded in paraffin, sectioned and stained with hematoxylin and eosin (H&E). Selected sections were assessed by deoxynucleotidyltransferase dUTP nick-end labeling (TUNEL) as described (45).
Mice experiments were conducted under an approved protocol by the Institutional Animal Care and Use Committee of the California Institute of Technology. Male C57BL6/J mice and male NSG mice were purchased from The Jackson Laboratory. All animals were maintained on a standard light-dark cycle. LNCaP cells (2.5 million cells) were engrafted in a mixture of 1:1 media and matrigel in the left flank of NSG mice. Tumors were allowed grow to ˜200 mm^3 (0.5×L×W^2) before treatment. Py-Im polyamide 78 was administered by SC injection once every 3 d at 1 mg/kg in a 20% (vol/vol) DMSO:Normal saline vehicle solution for 6 injections. Animals were sacrificed two days after the final injection. Animal weight and general health were monitored daily. Fourteen animals were used for each treatment group.

[6] = Multiple-dose subcutaneous injections, male C57BL/6J mice; type: in vivo; conditions: 1 mg/kg SC every 3 days
Method: In addition to single dose injections, the effects of repeated dosing of polyamides 77-80 in mice were examined. In this experiment, 8 week-old male C57BL/6J mice (n=3 per dosing group) were treated with 1 mg/kg of polyamides 77-80 by subcutaneous injection every 3 days, for a cycle of three injections and then sacrificed two days after the final injection (FIG. 31A). As in the single dosing experiments, two mice per group were subjected to histopathology analysis and all blood samples were sent for analysis. […] These mice were promptly euthanized.
(§1) Serum from treated animals were collected by retroorbital bleeding. […] All samples were sent for analysis at IDEXX-RADIL.

[7] = system: RPB1; test: RPB1 protein ELISA in LNCaP cells; type: cell-based
Method: […] Cells treated with DMSO vehicle and 1 μM doxorubicin for 24 h were used as control. Cellular RBP1 levels were determined by a RPB1 specific ELISA kit (Cusabio Life Sciences) according to manufacturer's instructions. Total cellular p53 protein level was determined with a pan-p53 ELISA kit (Roche) according to manufacturer's instructions. Assays were performed in biological triplicates.

[8] = Six-injection regimen of 78 in healthy male C57BL/6J mice, serum chemistry and hematology; type: in vivo; conditions: SC 1 mg/kg, six injections
Method: To assess the toxicity of the treatment regimen in healthy animals, male C57BL/6J mice were treated with an identical regimen as the tumor-bearing mice and were sacrificed two days after the final injection. Because the liver and kidney were identified as the target organs of toxicity in our previous study, we assessed relevant serum markers for liver and kidney pathology (FIG. 33D). […] To examine if 78 has an effect on circulating blood counts, whole blood was sampled before treatment and at the time of sacrifice.
as §1

[9] = system: p53; test: p53 protein ELISA in LNCaP cells; type: cell-based; conditions: polyamide 10 μM 72 hr; doxorubicin 1 μM 24 hr
Method: Cellular levels of RPB1 and p53 protein in LNCaP cells after treatment with 10 μM 3 for 72 h were determined by ELISA. Cells treated with DMSO vehicle and 1 μM doxorubicin for 24 h were used as control. Cellular RBP1 levels were determined by a RPB1 specific ELISA kit (Cusabio Life Sciences) according to manufacturer's instructions. Total cellular p53 protein level was determined with a pan-p53 ELISA kit (Roche) according to manufacturer's instructions. Assays were performed in biological triplicates.

[10] = Liver microsomal stability, human; conditions: 1 μM, Human, 1 hr at 37° C., 1 mg/ml microsomes
Method: as §2

[11] = Liver microsomal stability, mouse; conditions: 1 μM, Mouse, 1 hr at 37° C., 1 mg/ml microsomes
Method: as §2

[12] = Escalating single dose subcutaneous injections, male C57BL/6J mice (weight, histopathology, serum)
Method: Representative mice (n=2 per dosing group unless otherwise noted) were subjected to histopathology analysis by a veterinary pathologist. Blood from all mice was sampled and sent for analysis of serum markers of target organs. […] These mice were euthanized when significant duress was apparent.
All animal experiments were conducted under an approved protocol at the California Institute of Technology. Animals were allowed to adjust for 3 days after arrival before treatment. […] Animals were monitored daily for weight loss over 9 days and sacrificed. […] Weight was recorded on days of injection and at the experiment endpoint.
Sacrificed animals from weight loss experiments were fixed in 10% formalin and sent for histopathology analysis by IDEXX-RADIL. Histopathologic analysis was performed on the cecum, duodenum, heart, ileum, kidney, liver, lung, pancreas, spleen, and stomach. Tissue analysis was performed as a blind study to the identity of the animals.
Serum from treated animals were collected by retroorbital bleeding. Blood samples were centrifuged at 6,000 rpm for 5 min to collect the serum. Serum ALT, AST, total bilirubin, BUN, and creatinine levels were sent for analysis by IDEXX-RADIL. Serum analysis was performed as a blind study to the identity of the animals.

Q: Which results are given for `CC(=O)CC(c1ccccc1)c1c(O)c2ccccc2oc1=O` (stereo not drawn) [Warfarin]?
A: Mean remaining parent NADPH-free [1]: 100%; Mean remaining parent with NADPH [1]: 100%; Mean remaining parent NADPH-free [2]: 100%; Mean remaining parent with NADPH [2]: 100%

Q: With `CC(=O)N[C@H](CCNC(=O)c1cc(NC(=O)c2cc(NC(=O)c3cc(NC(=O)c4nccn4C)cn3C)cn2C)cn1C)C(=O)Nc1cn(C)c(C(=O)Nc2cc(C(=O)Nc3cc(C(=O)Nc4cc(C(=O)NCCCN(C)CCCNC(=O)c5cccc(C(=O)O)c5)n(C)c4)n(C)c3)n(C)c2)n1` [Polyamide 78, ImPyPyPy-2-(R)^AcHNγ-ImPyPyPy-NHMe-IPA] as the molecule, how does the pIC50 [3] read?
A: 5.68

Q: What about the “induction of p53 target genes” value [4] of the same molecule?
A: induced by 78 in a dose-dependent fashion

Q: What about the “T/C (tumor weight)” value ([5]; SC 1 mg/kg every three days) of the same molecule?
A: 52.4%

Q: What about the “weight loss and distress during xenograft treatment” value ([5]; SC 1 mg/kg) of the same molecule?
A: minimal weight loss and no signs of distress

Q: What about the “liver and kidney histopathology” value [6] of the same molecule?
A: no histopathologic lesions consistent with toxicity

Q: And the “liver and kidney serum markers” value [6]?
A: no histopathologic lesions consistent with toxicity or alterations in liver and kidney serum markers

Q: What about the “weight and physical morbidity” value ([6]; three injections) of the same molecule?
A: no loss in weight or physical morbidities

Q: What about the RPB1 levels ([7]; 1 μM for 72 h as printed) of the same molecule?
A: reduced RPB1 levels

Q: And the RPB1 protein ([7]; polyamide 10 μM 72 hr, doxorubicin 1 μM 24 hr)?
A: decreases

Q: What about the circulating blood counts [8] of the same molecule?
A: No significant hematologic changes

Q: And the “serum markers for liver and kidney pathology” value [8]?
A: no elevations in AST, ALT, total bilirubin, creatinine, or BUN

Q: What about the “cellular level of p53 protein” value [9] of the same molecule?
A: increases

Q: And the “Mean remaining parent NADPH-free” value [10]?
A: 94.9%

Q: What about the “Mean remaining parent with NADPH” value [10] of the same molecule?
A: 95.3%

Q: And the “Mean remaining parent NADPH-free” value [11]?
A: 100%

Q: What about the “Mean remaining parent with NADPH” value [11] of the same molecule?
A: 97.3%

Q: And the “tolerability, behavior and morbidity after single SC dose” value ([12]; 1, 3, 10 mg/kg)?
A: no change in behavior and appearance

Q: And the “overall toxicity / organ damage” value ([12]; single SC 1, 3, 10 mg/kg)?
A: no detectable toxicity at any dose level tested; also recorded: no detectable animal toxicity at 10 mg/kg

Q: What about the “serum kidney markers creatinine and BUN” value ([12]; single SC dose) of the same molecule?
A: no elevation of these markers at the dose levels tested

Q: What about the “serum liver markers AST, ALT, total bilirubin” value ([12]; single SC dose) of the same molecule?
A: no elevation of these markers at the dose levels tested
